Values of other authors, collected in patent US20100112102A1, “THERAPEUTIC COMPOSITIONS FOR THE TREATMENT OF BENIGH PROSTATE HYPERPLASIA, PROSTATITIS, IMPOTENCE, INFERTILITY AND PROSTATE CANCER AND A METHOD FOR THE USE THEREOF” (priority 2007, published 2010).

System: 5α-reductase
Details: one group of patients

CC(C)(C)NC(=O)[C@H]1CC[C@H]2[C@@H]3CC[C@H]4NC(=O)C=C[C@]4(C)[C@H]3CC[C@]12C [Finasteride]
J-PSS parameters, decrease on average: 20%
maximal rate of urination, increase: 32.5%
prostate size, decrease on average: 32%
